The source of these data is article PMC9622777, “Eradication of tumors and development of anti-cancer immunity using STINGa targeted by pHLIP” (Frontiers in Oncology, 2022).

The conditions of data set [1]: STINGa on its own; ref [11]; cited from earlier work.
The test system of another data set is CT26 tumors. The experiment in a line: Treatment of small (100 mm^3) CT26 tumors in Balb/c mice. In kind it is in vivo, mouse. Particulars: single injection, same molar dose level as pHLIP-STINGa. As to the method: On day 1, when tumors reached size of 100 mm^3 (“small tumors”) or 400-700 mm^3 (“large tumors”), mice were randomized into groups, body weight was measured and agents including pHLIP(Laa)-STINGa, pHLIP(Daa)-STINGa, pHLIP(Laa), STINGa (diABZI) or vehicle were given as a single intraperitoneal (IP) or intravenous (IV) injection. Vehicle, pHLIP(Laa), STINGa (diABZI) and pHLIP(Laa)-STINGa were given as a single IP injection of 100 μM 300 µl. pHLIP(Daa)-STINGa was given as a single IV injection of 200 μM 150 μl. The compounds were dissolved in DMSO as a stock solution and transferred to 20% PEG400 in saline containing 0.9% sodium chloride (vehicle). The residual DMSO in the final solution injected into animals was less than 2%. Tumor volume and body weight were measured 3 times per week throughout the study. Measurements of tumors were performed using calipers, and the tumor volume (V) was calculated with the formula: […]
where L is the length and W is the width of the measured tumor. Mice were removed from the study and euthanized when the tumor volume was greater than 2000 mm^3.

As to diABZI [STINGa], the half-life in data set [1] was 1.4 h. Besides, the “time by which all animals developed tumors” value in the data set with CT26 tumors is recorded as at most 35 days p.i.

What is called half-life is the time in which the quantity being followed falls by half.
